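Five compound concentrations were applied to cells in 96-well plates for 48 hours; endpoints were derived by simple linear interpolation of the resulting dose-response curve. TGI is the concentration that stops growth completely.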
Columns and labels:
Assay in all cases: inhibition of tumour cell growth, NCI panel, 48 h
786-0 renal = test system: 786-0 renal
A498 renal = test system: A498 renal
A549 NSCLC = test system: A549 NSCLC
ACHN renal = test system: ACHN renal
BT-549 breast = test system: BT-549 breast
CAKI-1 renal = test system: CAKI-1 renal
CCRF-CEM leukemia = test system: CCRF-CEM leukemia
COLO 205 colon = test system: COLO 205 colon
DU-145 prostate = test system: DU-145 prostate
EKVX NSCLC = test system: EKVX NSCLC
HCC-2998 colon = test system: HCC-2998 colon
HCT-116 colon = test system: HCT-116 colon
HCT-15 colon = test system: HCT-15 colon
HL-60(TB) leukemia = test system: HL-60(TB) leukemia
HOP-62 NSCLC = test system: HOP-62 NSCLC
HOP-92 NSCLC = test system: HOP-92 NSCLC
HS 578T breast = test system: HS 578T breast
HT29 colon = test system: HT29 colon
IGROV1 ovarian = test system: IGROV1 ovarian
K-562 leukemia = test system: K-562 leukemia
KM12 colon = test system: KM12 colon
LOX IMVI melanoma = test system: LOX IMVI melanoma
M14 melanoma = test system: M14 melanoma
MALME-3M melanoma = test system: MALME-3M melanoma
MCF7 breast = test system: MCF7 breast
MDA-MB-231 breast = test system: MDA-MB-231 breast
MDA-MB-435 = test system: MDA-MB-435
MDA-N = test system: MDA-N
MOLT-4 leukemia = test system: MOLT-4 leukemia
NCI-H226 lung = test system: NCI-H226 lung
NCI-H23 lung = test system: NCI-H23 lung
NCI-H522 lung = test system: NCI-H522 lung
NCI/ADR-RES ovarian = test system: NCI/ADR-RES ovarian
OVCAR-3 ovarian = test system: OVCAR-3 ovarian
OVCAR-4 ovarian = test system: OVCAR-4 ovarian
OVCAR-5 ovarian = test system: OVCAR-5 ovarian
OVCAR-8 ovarian = test system: OVCAR-8 ovarian
PC-3 prostate = test system: PC-3 prostate
RXF 393 renal = test system: RXF 393 renal
SF-268 CNS = test system: SF-268 CNS
SF-295 CNS = test system: SF-295 CNS
SF-539 CNS = test system: SF-539 CNS
SK-MEL-2 melanoma = test system: SK-MEL-2 melanoma
SK-MEL-28 melanoma = test system: SK-MEL-28 melanoma
SK-MEL-5 melanoma = test system: SK-MEL-5 melanoma
SK-OV-3 ovarian = test system: SK-OV-3 ovarian
SN12C renal = test system: SN12C renal
SNB-19 CNS = test system: SNB-19 CNS
SNB-75 CNS = test system: SNB-75 CNS
SR leukemia = test system: SR leukemia
SW-620 colon = test system: SW-620 colon
T-47D breast = test system: T-47D breast
TK-10 renal = test system: TK-10 renal
U251 CNS = test system: U251 CNS
UACC-257 melanoma = test system: UACC-257 melanoma
UACC-62 melanoma = test system: UACC-62 melanoma
UO-31 renal = test system: UO-31 renal

Cc1cccc2c(N)c3cccc(C(=O)NCC[N+](C)(C)Cc4sccc4[N+](=O)[O-])c3nc12
TGI (786-0 renal): > 100 µM
TGI (A498 renal): > 100 µM
TGI (A549 NSCLC): 16.9 µM
TGI (ACHN renal): 18.1 µM
TGI (BT-549 breast): 66.2 µM
TGI (CAKI-1 renal): 43.9 µM
TGI (CCRF-CEM leukemia): > 100 µM
TGI (COLO 205 colon): 79.3 µM
TGI (DU-145 prostate): > 100 µM
TGI (EKVX NSCLC): > 100 µM
TGI (HCC-2998 colon): 20.8 µM
TGI (HCT-116 colon): 96.8 µM
TGI (HCT-15 colon): > 100 µM
TGI (HL-60(TB) leukemia): > 100 µM
TGI (HOP-62 NSCLC): > 100 µM
TGI (HOP-92 NSCLC): > 100 µM
TGI (HS 578T breast): 28.3 µM
TGI (HT29 colon): 18.6 µM
TGI (IGROV1 ovarian): > 100 µM
TGI (K-562 leukemia): > 100 µM
TGI (KM12 colon): 28.2 µM
TGI (LOX IMVI melanoma): 61 µM
TGI (M14 melanoma): 32.8 µM
TGI (MALME-3M melanoma): 27.7 µM
TGI (MCF7 breast): 25.2 µM
TGI (MDA-MB-231 breast): 67.7 µM
TGI (MDA-MB-435): > 100 µM
TGI (MDA-N): 80.2 µM
TGI (MOLT-4 leukemia): > 100 µM
TGI (NCI-H226 lung): 32 µM
TGI (NCI-H23 lung): 30 µM
TGI (NCI-H522 lung): 29.1 µM
TGI (NCI/ADR-RES ovarian): > 100 µM
TGI (OVCAR-3 ovarian): > 100 µM
TGI (OVCAR-4 ovarian): 35.5 µM
TGI (OVCAR-5 ovarian): 33.1 µM
TGI (OVCAR-8 ovarian): 35.9 µM
TGI (PC-3 prostate): 77 µM
TGI (RXF 393 renal): 33.4 µM
TGI (SF-268 CNS): > 100 µM
TGI (SF-295 CNS): > 100 µM
TGI (SF-539 CNS): 14.4 µM
TGI (SK-MEL-2 melanoma): > 100 µM
TGI (SK-MEL-28 melanoma): > 100 µM
TGI (SK-MEL-5 melanoma): > 100 µM
TGI (SK-OV-3 ovarian): 41.3 µM
TGI (SN12C renal): > 100 µM
TGI (SNB-19 CNS): > 100 µM
TGI (SNB-75 CNS): > 100 µM
TGI (SR leukemia): > 100 µM
TGI (SW-620 colon): > 100 µM
TGI (T-47D breast): > 100 µM
TGI (TK-10 renal): > 100 µM
TGI (U251 CNS): > 100 µM
TGI (UACC-257 melanoma): > 100 µM
TGI (UACC-62 melanoma): 36 µM
TGI (UO-31 renal): > 100 µM
